Test results: US12514847B2, “Oxathiazin_dioxide for treating, preventing, inhibiting or reducing cytokine release” (Geistlich Pharma AG, priority 2019, dated 2026)

What was measured:
[1] = tested on: CAR T cell-induced severe or life-threatening CRS; conditions: two cohorts; adults and pediatric patients 2 years and older; cited from earlier work
[2] = tested on: Human CD19 specific CAR-T effector cells; experiment: CD19 CAR-T co-culture assay with Raji cells: cytokine release; format: cell-based
Description: (§1) Human CD19 specific CAR-T effector cells from a donor were co-cultured with Raji, a human CD19 expressing target B cell line at different effector to target cell ratios of 5:1, 10:1, and 20:1 in the presence of C-2250. Co-culture was performed for 6 hours or 24 hours at 37° C., 5% CO2 prior to harvesting cells for CAR-T mediated target cell lysis or tissue culture supernatant for cytokine analysis. C-2250 was used at 500, 1000, and 1500 μM concentrations and was allowed to pre-incubate with CAR-T cells prior to addition of tumor target cells.

Human PBMCs = experiment: PBMC/Ramos co-culture with BLINCYTO: cytokine release; format: cell-based
Description: (§2) Inhibition of cytokine release by C-2250 in the presence of a bispecific CD19 T cell engager was assessed. Human PBMCs from ten donors were co-cultured with Ramos cells (a human CD19 expressing B cell line) in the presence of blinatumomab (BLINCYTO®), a T cell bispecific therapeutic, and C-2250 was added.
(§3) Co-culture was performed for 24 hours at 37° C., 5% CO2, prior to harvesting cells or tissue culture supernatant for analysis. C-2250 was used at 500, 1000, and 1500 μM concentrations and was allowed to pre-incubate with T cells prior to addition of BLINCYTO®.

[3] = tested on: Ramos cells (a human CD19 expressing B cell line); experiment: PBMC/Ramos co-culture with BLINCYTO: target cell cytotoxicity; format: cell-based; conditions: 24 hours
Description: as §2, §3

[4] = tested on: Raji, a human CD19 expressing target B cell line; experiment: CD19 CAR-T co-culture assay with Raji cells: CAR-T mediated target cell lysis; format: cell-based; conditions: E:T ratios 5:1, 10:1, 20:1
Description: as §1
FIGS. 2A-2C show the results of CD19 CAR-T co-culture assay with CD-19 tumor cells (Raji) at 6 hours, CAR-T mediated tumor target cell in the present of increasing concentrations of C-2250 are shown (E:T ratios of 5:1, 10:1, and 20:1 are shown in FIGS. 2A, 2B, and 2C, respectively). FIGS. 3A-3C show the results of CD19 CAR-T co-culture assay with CD-19 tumor cells (Raji) at 24 hours, CAR-T mediated tumor target cell in the present of increasing concentrations of C-2250 are shown (E:T ratios of 5:1, 10:1, and 20:1 are shown in FIGS. 3A, 3B, and 3C, respectively).

[5] = tested on: primary human peripheral blood mononuclear cells (PBMCs); experiment: LPS stimulated human PBMC cytokine release; format: cell-based; conditions: LPS 1 ng/ml, 48 hours; C-2250 500, 1000, 1500 μM; five donors
Description: The ability of C-2250 to suppress in vitro cytokine release from primary human peripheral blood mononuclear cells (PBMCs) was assessed. Lipopolysaccharide (LPS) inhibition by C-2250 was determined. PBMCs from five individual, normal healthy human volunteers were incubated with C-2250, followed by LPS stimulation for 48 hours. Detection of three different cytokines was performed using an antibody capture bead-based kit and flow cytometric analysis.
Cryopreserved PBMCs from five healthy human donors (IQ Biosciences, Catalog #I QB-PBMC103) were thawed and cultured in RPMI 1640 medium (Gibco RPMI-1640 Medium (ATCC, Catalog #30-2001) supplemented with 10% FCS, 2 mM L-glutamine, 100 IU/mL penicillin, 100 μg/mL streptomycin, 1 mM sodium pyruvate (all from ThermoFisher) with viability >85% as determined automated cell counter (Countess II FL Automated Cell Counter; ThermoFisher; Catalog #AMQAF1000) prior to experiments. For C-2250, a 73 mM stock was prepared in sterile Lactated Ringer's Solution less than two hours prior to the start of the assay by adding 100 mg C-2250 into 10 mL Lactated Ringer's Solution. Prior to use in the assay, the pH of the solution was adjusted to 7.3. 100 μl of PBMCs at 1.0×10^7 cells/mL were washed and re-suspended in tissue culture medium containing a fixed concentration (1 ng/ml) of LPS from E. coli, serotype 0111:B4. LPS stimulation was performed for 48 hours at 37° C., 5% CO2 prior to harvesting tissue culture supernatant for cytokine analysis. C-2250 was used at 500, 1000, and 1500 μM concentrations.
Each symbol represents the mean value of triplicate analysis of a single donor. Each bar per treatment group represents the mean value of all donors where the triplicate value of each donor is averaged.

[6] = Solubility in water / isotonicity; format: physicochemical
[7] = E:T ratios 5:1, 10:1, 20:1, C-2250 500, 1000, 1500 μM
[8] = C-2250 500, 1000, 1500 μM with BLINCYTO 100 ng/ml, 24 hours

concentration of isotonic solution [6] [%] | solubility in water ([6]; no PVP necessary) | Molecule | response rates [1] | cytokine release (including IL-1β, IL-6, TNF-α, and IFN-γ cytokines) ([2]; CAR-T/Raji co-culture, summary statement) | CD19 CAR-T cell mediated IFN-γ cytokine release [2, 7] | CD19 CAR-T cell mediated IL-2 cytokine release [2, 7] | CD19 CAR-T cell mediated TNF-α cytokine release [2, 7] | BLINCYTO T-cell mediated IFN-γ cytokine release (Human PBMCs; [8]) | BLINCYTO T-cell mediated IL-1β cytokine release (Human PBMCs; [8]) | BLINCYTO T-cell mediated IL-2 cytokine release (Human PBMCs; [8]) | BLINCYTO T-cell mediated IL-6 cytokine release (Human PBMCs; [8]) | BLINCYTO T-cell mediated TNF-α cytokine release (Human PBMCs; [8]) | release of all of the tested cytokines (Human PBMCs; with BLINCYTO, summary statement) | BLINCYTO mediated CD19+ tumor target cell cytotoxicity ([3]; C-2250 500, 1000, 1500 μM with BLINCYTO 100 ng/ml) | tumor target cytotoxicity in the absence of BLINCYTO ([3]; no BLINCYTO, PBMC/Ramos co-culture) | CD19 CAR-T mediated CD19+ tumor target cell cytotoxicity ([4]; 6 hours) | CD19 CAR-T mediated CD19+ tumor target cell cytotoxicity ([4]; 24 hours) | inhibition of IL-1β cytokine release [5] | inhibition of IL-6 cytokine release [5] | inhibition of TNF-α cytokine release [5]
– | – | tocilizumab: monoclonal antibody blocking the interleukin-6 (IL-6) receptor | 53%-69% | – | – | – | – | – | – | – | – | – | – | – | – | – | – | – | – | –
3.2 | very soluble | O=S1(=O)CCOCN1 [C-2250, Tetrahydro1,4,5-oxathiazin-4-dioxide] | – | shuts down | reduces | reduces | reduces | reduced | reduced | reduced | reduced | reduced | reduced | did not reduce | increased | does not abrograte | does not abrograte | dose-dependent inhibition | dose-dependent inhibition | dose-dependent inhibition
